# Values quoted from earlier work in PMC3203620 (The Journal of Organic Chemistry, 2011).
# Legend:
# [1] = system: Plasmodium falciparum DXR
# [2] = system: P. vinckei
# [3] = system: Mt; conditions: due to poor uptake
smiles,measurement,setting,value
"O=CN(O)CCCP(=O)(O)O [Compound 1, fosmidomycin]",inhibition of Plasmodium falciparum DXR in vitro,[1],potent inhibitor
same,pharmacokinetic properties,,poor pharmacokinetic properties
same,activity in vivo in P. vinckei infected mice,[2],potent inhibitor
same,activity on Mt at the whole cell level,[3],inactive
